The source of these data is article PMC5602538, “Assessment of the Drug Interaction Potential of Unconjugated and GalNAc3-Conjugated 2′-MOE-ASOs” (Molecular Therapy. Nucleic Acids, 2017).

In one series the test system is T1, OAT3.
T1 construct: expressed in transfected cells; host or cells: MDCK-II
The series is described as follows: OAT3 inhibition study in MDCK cells. Type of series: in vitro ADME. The note with it: 100 μM ASO, 10 μM p-aminohippurate. The method, then:
A 96-well cell culture plate containing a monolayer of MDCK-II cells grown on a permeable support and a corresponding receiver tray was used. The basolateral compartment of the culture plate and wells were washed with warm HBSS three times, with wells of the culture plate serving as the apical compartment. The wash was aspirated by adding 150 μL of 37°C HBSS to both compartments. […] The pre-incubation buffer from both compartments was aspirated and 150 μL of the following was added to the basal compartment. […] OATP1B1, 2 μM [^3H]-estradiol-17 β-D-glucuronide; and OATP1B3, 2 μM [^3H]-cholecystokinin octapeptide (CCK-8). […] Plates were incubated at 37°C with orbital shaking at 60 rpm for 5 min. Both sides of the permeable support were washed four times with ice-cold PBS and 60 μL of cell extraction solution was added to each well. Plates were agitated for 15 min at 120 rpm, after which a 30-μL sample of the extract was collected. […] Test article concentrations, including control samples, were evaluated by an LC-MS method. Signal to noise for probe substrates was calculated by dividing the uptake of the probe substrate in transporter-expressing cells by the uptake of probe substrate in control cells not expressing the transporter of interest.

The next series deals with CYP2B6. Nature of the series: CYP2B6 enzyme activity induction in plated human hepatocytes. The note with it: ASO 100 μM, human hepatocytes 72 hr, vs PBS 1% vehicle, mean ± SD of triplicate. As to the method:
(§1) Upon receipt, sandwich-cultured cryopreserved human hepatocytes (with Matrigel) plated on collagen-coated 24-well plates were inspected under a microscope for general morphology and viability. Fresh culture medium (OptiCulture Hepatocyte Media) was added to each plate that passed the visual inspection. The plates were then placed in an incubator set to 37°C with 5% carbon dioxide (CO2) for overnight acclimation. […] During this time, cells in parallel wells were also treated with 50.0 μM omeprazole (inducer of CYP1A2), 1,000 μM phenobarbital (inducer of CYP2B6), or 10.0 μM rifampicin (inducer of CYP3A4) in triplicate, respectively.
(§2) The plates were then incubated at 37°C with 5% CO2 for 60 min. […] Aliquots of the supernatants were analyzed by LC-MS/MS for the formation of acetaminophen, hydroxyl-bupropion, or hydroxyl-midazolam as markers for enzyme activity of CYP1A2, CYP2B6, and CYP3A4, respectively.
(§3) The activity of each CYP enzyme was measured by comparing the peak area ratio of the corresponding product to the peak area ratio of the internal standard. The fold induction was calculated by dividing the peak area ratio of each individual well from the treatment group by the mean of the peak area ratios obtained from the vehicle control wells. […] The ΔCƬ was calculated as follows: ΔCƬ = CƬ (CYP) − CƬ (GAPDH). […] The ΔΔCƬ was calculated as follows: ΔΔCƬ = Δ CƬ (Treatment) − Δ CƬ (Vehicle). […]

The subject of the next series is CYP3A4 mRNA. The series is described as follows: CYP3A4 mRNA induction in plated human hepatocytes. The note with it: ASO 100 μM, human hepatocytes 72 hr, vs PBS 1% vehicle, mean ± SD of triplicate. As to the method:
as §1
(§4) After collection of the supernatant for catalytic analysis, the remaining cells were washed and lysed with QIAGEN Buffer RLT from the QIAGEN RNeasy Kit. […]
(§5) The activity of each CYP enzyme was measured by comparing the peak area ratio of the corresponding product to the peak area ratio of the internal standard. The fold induction was calculated by dividing the peak area ratio of each individual well from the treatment group by the mean of the peak area ratios obtained from the vehicle control wells. […] The ΔCƬ was calculated as follows: ΔCƬ = CƬ (CYP) − CƬ (GAPDH). […] The ΔΔCƬ was calculated as follows: ΔΔCƬ = Δ CƬ (Treatment) − Δ CƬ (Vehicle). The fold induction of the target CYP was calculated using the following equation: Fold=2^-ΔΔCT.

For series [1], the system named is CYP1A2. The series is described as follows: CYP1A2 enzyme activity induction in plated human hepatocytes. The note with it: ASO 100 μM, human hepatocytes 72 hr, vs PBS 1% vehicle, mean ± SD of triplicate. As to the method:
as §1, §2, §3

In the next series the test system is CYP1A2 mRNA. Nature of the series: CYP1A2 mRNA induction in plated human hepatocytes. The conditions noted are these: ASO 100 μM, human hepatocytes 72 hr, vs PBS 1% vehicle, mean ± SD of triplicate. The method, then: as §1, §4, §5
The target of another series is CYP2C19 (Homo sapiens, UniProt P33261). The note with it: hepatocytes.
Another series addresses CYP2E1 (Homo sapiens, UniProt P05181). The conditions noted are these: hepatocytes.
The next series addresses T2, CYP2C8 (Homo sapiens, UniProt P10632).
T2 sequence (P10632 1-490): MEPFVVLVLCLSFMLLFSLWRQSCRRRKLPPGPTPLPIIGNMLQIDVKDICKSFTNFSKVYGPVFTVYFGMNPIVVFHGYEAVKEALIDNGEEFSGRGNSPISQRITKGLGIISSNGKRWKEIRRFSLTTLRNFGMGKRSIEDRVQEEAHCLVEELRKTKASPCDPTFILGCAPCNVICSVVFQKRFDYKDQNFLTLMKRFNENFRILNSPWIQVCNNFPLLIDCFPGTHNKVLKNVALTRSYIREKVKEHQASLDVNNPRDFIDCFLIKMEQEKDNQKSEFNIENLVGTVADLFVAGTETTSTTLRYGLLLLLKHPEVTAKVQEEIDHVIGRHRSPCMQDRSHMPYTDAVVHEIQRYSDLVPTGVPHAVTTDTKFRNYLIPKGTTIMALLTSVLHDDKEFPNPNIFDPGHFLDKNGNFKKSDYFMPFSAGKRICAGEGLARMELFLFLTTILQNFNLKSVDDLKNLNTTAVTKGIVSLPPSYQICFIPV
The note with it: hepatocytes.

A further series concerns the target CYP2D6 (Homo sapiens, UniProt P10635). The note with it: hepatocytes.
Series [2] has as its target T3, CYP1A2 (Homo sapiens, UniProt P05177).
T3 construct: Human hepatocytes (pooled from 5 donors); host or cells: cryopreserved human hepatocytes in suspension, pooled from 5 donors
The series is described as follows: CYP1A2 inhibition in cryopreserved human hepatocyte suspensions (phenacetin probe). Type of series: in vitro ADME. The conditions noted are these: human hepatocytes.
Protocol: (§6) Preincubations were performed in 50 μL of Williams’ Medium E with 2 mM salicylamide. The salicylamide was included to reduce possible phase II conjugation to the precursor phase I metabolites. […] Human hepatocytes (pooled from 5 donors) were thawed and prepared according to the vendor’s protocol. […] Incubations were carried out at 37°C with 5% CO2. The incubation time was 45 min for phenacetin, diclofenac, dextromethorphan, midazolam, bupropion, chlorzoxazone, and testosterone and 90 min for paclitaxel and (S)-mephenytoin. The reactions were stopped by adding 200 μL of ice-cold acetonitrile (can) with tolbutamide (100 ng/mL) as the internal standard to 100 μL of hepatocyte suspension (1:2, v/v). The 96-well plate was then vortexed at 1,700 rpm for 3 min and centrifuged at 3,500 rpm for 10 min at 20°C. The supernatants were analyzed using liquid chromatography-tandem MS (LC-MS/MS).

For the next series, the target named is CYP3A4 (Homo sapiens, UniProt P08684). The note with it: hepatocytes.
The target of a further series is CYP2C9 (Homo sapiens, UniProt P11712). The conditions noted are these: hepatocytes.

{GalNAc3} = trishexylamino-C6 triantennary GalNAc conjugate; e = 2'-O-(2-methoxyethyl) (MOE); d = 2'-deoxy (DNA)

T3 sequence (P05177 whole entry): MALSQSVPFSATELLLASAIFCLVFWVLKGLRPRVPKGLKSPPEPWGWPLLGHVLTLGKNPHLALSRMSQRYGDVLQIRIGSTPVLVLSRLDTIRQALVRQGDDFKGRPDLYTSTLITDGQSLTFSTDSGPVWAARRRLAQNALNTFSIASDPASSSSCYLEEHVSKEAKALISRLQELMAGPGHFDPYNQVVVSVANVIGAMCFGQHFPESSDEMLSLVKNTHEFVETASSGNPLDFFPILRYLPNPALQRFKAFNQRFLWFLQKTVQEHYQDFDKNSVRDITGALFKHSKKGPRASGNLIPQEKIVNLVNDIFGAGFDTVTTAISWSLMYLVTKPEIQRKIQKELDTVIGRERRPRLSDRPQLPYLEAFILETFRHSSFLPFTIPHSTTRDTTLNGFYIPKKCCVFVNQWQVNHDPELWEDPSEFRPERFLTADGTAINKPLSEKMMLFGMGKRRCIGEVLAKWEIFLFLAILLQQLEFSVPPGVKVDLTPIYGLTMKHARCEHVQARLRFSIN
Sequence of CYP2C19 (P33261 whole entry): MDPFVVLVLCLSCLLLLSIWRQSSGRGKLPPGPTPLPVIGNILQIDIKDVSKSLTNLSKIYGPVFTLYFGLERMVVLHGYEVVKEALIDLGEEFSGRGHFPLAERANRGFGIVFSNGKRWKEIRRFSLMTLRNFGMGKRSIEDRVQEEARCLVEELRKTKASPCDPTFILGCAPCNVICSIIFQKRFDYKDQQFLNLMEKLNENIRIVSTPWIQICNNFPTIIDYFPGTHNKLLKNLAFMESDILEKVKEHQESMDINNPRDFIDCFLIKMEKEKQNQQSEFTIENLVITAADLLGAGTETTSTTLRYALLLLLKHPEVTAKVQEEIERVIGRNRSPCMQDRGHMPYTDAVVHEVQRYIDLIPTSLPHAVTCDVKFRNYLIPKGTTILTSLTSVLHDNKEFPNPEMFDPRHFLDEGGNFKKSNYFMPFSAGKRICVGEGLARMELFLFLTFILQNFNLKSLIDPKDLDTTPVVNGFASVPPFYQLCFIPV
Sequence of CYP3A4 (P08684 whole entry): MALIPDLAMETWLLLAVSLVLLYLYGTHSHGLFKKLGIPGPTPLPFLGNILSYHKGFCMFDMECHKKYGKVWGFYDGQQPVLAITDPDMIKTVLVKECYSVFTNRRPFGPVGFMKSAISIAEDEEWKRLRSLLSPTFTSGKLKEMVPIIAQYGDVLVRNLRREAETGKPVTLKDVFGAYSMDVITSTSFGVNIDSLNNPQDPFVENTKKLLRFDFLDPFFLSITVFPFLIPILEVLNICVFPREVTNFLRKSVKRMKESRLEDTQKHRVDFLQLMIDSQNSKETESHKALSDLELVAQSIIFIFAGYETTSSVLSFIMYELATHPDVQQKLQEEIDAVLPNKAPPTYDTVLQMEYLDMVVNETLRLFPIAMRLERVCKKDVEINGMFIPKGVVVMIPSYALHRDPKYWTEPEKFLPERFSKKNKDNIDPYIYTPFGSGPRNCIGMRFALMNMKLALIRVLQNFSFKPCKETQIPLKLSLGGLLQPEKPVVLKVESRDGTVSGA
Sequence of CYP2C9 (P11712 whole entry): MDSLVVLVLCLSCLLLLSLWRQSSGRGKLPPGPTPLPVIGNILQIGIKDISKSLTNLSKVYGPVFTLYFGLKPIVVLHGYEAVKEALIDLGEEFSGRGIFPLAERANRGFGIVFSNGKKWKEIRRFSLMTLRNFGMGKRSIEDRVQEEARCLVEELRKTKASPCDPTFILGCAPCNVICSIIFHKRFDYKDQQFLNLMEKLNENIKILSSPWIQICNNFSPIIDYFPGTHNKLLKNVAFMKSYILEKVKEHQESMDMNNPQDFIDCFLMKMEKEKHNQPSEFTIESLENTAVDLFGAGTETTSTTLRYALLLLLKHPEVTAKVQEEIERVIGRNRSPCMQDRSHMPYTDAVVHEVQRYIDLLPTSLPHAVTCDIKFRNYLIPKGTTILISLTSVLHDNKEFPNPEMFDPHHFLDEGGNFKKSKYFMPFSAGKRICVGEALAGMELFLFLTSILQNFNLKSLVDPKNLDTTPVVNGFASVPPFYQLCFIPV
Sequence of CYP2E1 (P05181 whole entry): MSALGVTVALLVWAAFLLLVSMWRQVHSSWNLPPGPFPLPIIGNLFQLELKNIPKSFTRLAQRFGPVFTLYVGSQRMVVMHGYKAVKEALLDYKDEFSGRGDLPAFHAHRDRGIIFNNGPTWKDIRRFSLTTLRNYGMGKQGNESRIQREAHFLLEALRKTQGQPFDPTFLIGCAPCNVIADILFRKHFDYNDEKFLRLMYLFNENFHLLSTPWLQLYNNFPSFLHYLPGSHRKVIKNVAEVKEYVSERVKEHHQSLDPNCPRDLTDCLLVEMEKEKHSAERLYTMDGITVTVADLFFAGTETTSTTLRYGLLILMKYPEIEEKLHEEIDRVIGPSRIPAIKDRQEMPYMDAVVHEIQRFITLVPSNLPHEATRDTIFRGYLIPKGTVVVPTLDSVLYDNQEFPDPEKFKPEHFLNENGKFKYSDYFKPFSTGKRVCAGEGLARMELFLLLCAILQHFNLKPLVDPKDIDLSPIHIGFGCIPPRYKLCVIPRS
Sequence of CYP2D6 (P10635 whole entry): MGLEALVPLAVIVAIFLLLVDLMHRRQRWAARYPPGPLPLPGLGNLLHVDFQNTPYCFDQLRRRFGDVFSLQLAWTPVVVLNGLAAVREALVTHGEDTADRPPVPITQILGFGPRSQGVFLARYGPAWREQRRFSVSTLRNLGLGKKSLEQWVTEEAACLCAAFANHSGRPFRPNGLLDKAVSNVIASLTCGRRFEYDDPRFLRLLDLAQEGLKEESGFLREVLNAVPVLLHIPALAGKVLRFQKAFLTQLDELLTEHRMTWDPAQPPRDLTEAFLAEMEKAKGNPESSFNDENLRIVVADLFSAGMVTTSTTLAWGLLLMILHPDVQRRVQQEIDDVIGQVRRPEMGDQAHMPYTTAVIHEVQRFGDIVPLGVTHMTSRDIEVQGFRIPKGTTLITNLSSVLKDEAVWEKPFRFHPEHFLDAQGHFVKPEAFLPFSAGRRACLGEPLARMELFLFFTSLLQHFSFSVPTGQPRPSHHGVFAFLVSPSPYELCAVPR
Protocol for CYP2C19: as §6
Protocol for CYP2C8: as §6
Protocol for CYP2C9: as §6
Protocol for CYP2D6: as §6
Protocol for CYP2E1: as §6

On to “ISIS 681257: 20-mer 2′-MOE gapmer PS/PO mixed backbone ASO conjugated to 5′-trishexylamino GalNAc3, targets Lp(a), sequence TGCTCCGTTGGTGCTTGTTC (5' {GalNAc3}, sugars by position and backbone not given here; 2'-MOE gapmer with mixed PS/PO backbone)”, for which, in the series with OAT3, the “Enhancement of probe substrate uptake, OAT3” value is on record as 18.2%. Moreover, in the series with CYP2B6, the “Fold induction of CYP2B6 enzyme activity” value came to 1.20 ± 0.389 fold. Moreover, the “Fold induction of CYP3A4 mRNA” value in the series on CYP3A4 mRNA came out at 0.213 ± 0.0471 fold. Moreover, in the series on CYP1A2 [1], the “Fold induction of CYP1A2 enzyme activity” value was found to be 1.40 ± 0.116 fold. Further, the “Fold induction of CYP1A2 mRNA” value in the series on CYP1A2 mRNA worked out at 1.71 ± 0.0853 fold.
For “ISIS 420915: 20-mer 2′-MOE gapmer PS backbone antisense inhibitor of transthyretin, sequence TCTTGGTTACATGAAATCCC (all phosphorothioate, sugars by position and methylation of C not given here; 2'-MOE gapmer)”, the IC50 in the series with CYP2C19, in the series with CYP2E1, with CYP2C8, with CYP2D6, with CYP1A2 [2] and with CYP3A4 was more than 100 µM throughout. The IC50 with CYP2C9 is more than 100 µM.
As to “ISIS 304801: 20-mer (5-10-5) 2′-MOE gapmer PS backbone antisense inhibitor of apoC-III, sequence AGCTTCTTGTCCAGCTTTAT (sugars from the 5' end e5 d10 e5, all phosphorothioate, methylation of C not given here)”, the IC50 with CYP2C19, in the series with CYP2E1, with CYP2C8, with CYP2D6, with CYP1A2 [2] and with CYP3A4 was more than 100 µM in each case. The same substance registered an IC50 in the series with CYP2C9 of more than 100 µM.

Broadly, the IC50 is the concentration that gives 50% inhibition. Lower therefore signals higher potency.
